In patent US20260216220A1, “TREATMENT OF MYELOPEROXIDASE-POSITIVE ANCA-ASSOCIATED VASCULITIS WITH H2S RELEASING COMPOUNDS” (DEBRECENI EGYETEM, priority 2022, published 2026):
Read-outs that look alike come from different tables or passages of the source.

Legend:
[1] = tested on: mouse model of MPO-ANCA vasculitis; test: ANCA vasculitis mouse model (anti-MPO splenocyte transfer into Rag2−/− mice), kidney histology; format: in vivo; conditions: ATB 60 μmol/kg, administered orally (per os)
Procedure: MPO knockout mice were immunized with mouse MPO based on the following protocol. On day 1 200 μl of 20 μg murine MPO (mMPO) or BSA in total with Complete Freud's Adjuvant were injected to MPO KO mice. 30-40 μl were injected to the backfoot footpads and 120-160 μl were injected subcutaneously in the abdominal region. On day 14 20 μg mMPO/BSA were injected IP with incomplete Freud's Adjuvant and on day 28 mice were boosted with 20 μg mMPO/BSA in DPBS buffer IP. 10 days after boost blood was drawn from eye corner under isoflurane anesthesia and antibody titers were checked by anti-MPO ELISA. If titer were low mice were boosted again with 20 μg mMPO or BSA and titer were checked again 7 days later. If titers were appropriate mice were terminated and splenocytes were isolated. […] The remaining red blood cells were lysed with Red Blood Cell Lysis Buffer according to manufacturer's instructions. […] Cells were counted using trypan blue solution, the total cell count varied between 3×10^7 and 6×10^7. Splenocytes derived from 1 mouse were injected into 2 Rag2−/− immunodeficient mice intravenously. […] After 4 weeks antibody titers were checked with anti-MPO ELISA. […]
The percentage of affected glomeruli in treated samples were calculated compared to their control pairs.

neutrophils [2] = conditions: cited from earlier work
neutrophils [3] = test: Neutrophil phagocytosis of fluorescent Escherichia coli K-12 BioParticles (Vybrant kit); format: cell-based, human; conditions: GYY4137 10-100 μM, 2 hours
Procedure: Phagocytosis experiments were carried out with the Vybrant™ Phagocytosis Assay Kit based on manufacturers instruction. Briefly, Fluorescent-labeled Escherichia coli K-12 BioParticles, and trypan blue stock solutions were prepared. […] 1 hour or 5 minutes prior to the addition of the fluorescent BioParticles suspension. After 2 hours the BioParticle solution was removed, 100 μl trypan blue solution was added immediately, and incubated for 1 minute at room temperature. Trypan blue was removed and 100 μl HBSS was added to each well. Fluorescence was measured at the excitation and emission wavelengths of 480 and 520 nm respectively. Samples for microscopy analysis were prepared similarly with the cell number of 2×10^5/well in EZ slide chamber slides.

[4] = tested on: PMA-activated neutrophils
[5] = tested on: PMA activated neutrophils
neutrophils [6] = conditions: cited from earlier work; remark: listed apart in the source
[7] = upon PMA and bacterial activation

Q: Which “efficacy on kidney damage in ANCA mouse model” value [1] does the source give for COc1ccc2cc(C(C)C(=O)Oc3ccc(C(N)=S)cc3)ccc2c1 (stereo not drawn) [ATB346] here?
A: The value was “nor proved to be beneficial in reducing kidney damage”.

Q: What about the “efficacy on kidney damage in ANCA mouse model” value ([1]; listed as ATB) of the same compound?
A: The value was “proved to be inefficient”.

Q: For N[C@@H](CS)C(=O)O [cysteine], which neutrophil apoptosis (neutrophils [2]; [7]) is on record?
A: The neutrophil apoptosis was “inhibited neutrophil apoptosis”.

Q: What about the oxidative burst (neutrophils [2]; [7]) of the same compound?
A: Its oxidative burst is “promoted oxidative burst”.

Q: For C=C1[C@@H](C)[C@H]2[C@H](Cc3ccccc3)NC(=O)[C@]23[C@H](OC(C)=O)/C=C/[C@@](C)(O)C(=O)[C@@H](C)C/C=C/[C@H]3[C@@H]1O [cytochalasin D], which “phagocytosis of E. coli Bioparticles (fluorescent microscopy)” value (neutrophils [3]) is on record?
A: The value was “inhibited”.

Q: With C=CCSSCC=C [diallyl-disulfide] as the compound, how does the neutrophil apoptosis (neutrophils [2]; [7]) read?
A: Its neutrophil apoptosis is “inhibited neutrophil apoptosis”.

Q: What about the oxidative burst (neutrophils [2]; [7]) of the same compound?
A: Its oxidative burst is “promoted oxidative burst”.

Q: For C=CCSSSCC=C [diallyl-trisulfide], which neutrophil apoptosis (neutrophils [2]; [7]) is on record?
A: Its neutrophil apoptosis is “inhibited neutrophil apoptosis”.

Q: And the oxidative burst (neutrophils [2]; [7])?
A: Its oxidative burst is “promoted oxidative burst”.

Q: Which results are given for sodium sulfide?
A: neutrophil apoptosis (neutrophils [2]): inhibited neutrophil apoptosis; oxidative burst (neutrophils [2]): promoted oxidative burst; β-glucuronidase activity in supernatants (degranulation), PMA activation [4]: no effect on the enzymatic activity; H2O2 production by PMA-activated neutrophils (FOX assay) [5]: not affected; killing of bacteria by neutrophils (neutrophils [6]): more efficient in killing bacteria; neutrophil apoptosis (neutrophils [6]): diminished neutrophil apoptosis
